Reference: patent US20070149576A1, “Means for protecting against technical materials” (priority 2003, published 2007)

Columns and labels:
[1] = test system: Reticulitermes santonensis (termite); assay: EN 117 determination of the activity threshold against Reticulitermes santonensis (laboratory test); format: in vivo; conditions: for activity threshold against termites, EN 117 (with EN 84): after EN 84 leaching stress
[2] = test system: Hylotrupes bajulus (house longhorn beetle); assay: EN 46 determination of the prophylactic effect on egg larvae of Hylotrupes bajulus (laboratory test); format: in vivo; conditions: for activity threshold against wood-destroying beetles, EN 46 (with EN 84): after EN 84 leaching stress

| Compound | activity threshold against termites, EN 117 (with EN 84) [1] | activity threshold against wood-destroying beetles, EN 46 (with EN 84) [2] | activity threshold against wood-destroying beetles, EN 46 (without stress) [2] | activity threshold against termites, EN 117 (without stress) ([1]; without stress) |
| --- | --- | --- | --- | --- |
| CC1(C)C(C=C(Cl)Cl)C1C(=O)OC(C#N)c1ccc(F)c(Oc2ccccc2)c1 (stereo not shown) [cyfluthrin] | 10-20 g/m^3 | <0.006 g/m^2 | <0.006 g/m^2 | – |
| CCOC(=O)NCCOc1ccc(Oc2ccccc2)cc1 [fenoxycarb] | ineffective | 0.050 g/m^2 | 0.005 g/m^2 | ineffective |
